The test system of data set [1] is mélanocytes humains normaux. The data set can be described thus: Cytotoxicity: viability of melanocytes by spectrophotometric assay of intracellular phosphatase activity (p-nitrophenyl phosphate, 405 nm). The method, then:
On effectue la détermination sur des mélanocytes humains normaux obtenus à partir d'un sujet jeune (4 ans). Pour les réalisations des essais, les cellules ont été cultivées jusqu'à l'obtention de mono couches confluentes.
Les cellules ont mises en incubation pendant 72 heures en l'absence (essai témoin) ou en présence de concentrations croissantes de composé E ou de chacun des produits essayés. Pour le composé E, on a essayé des concentrations de 0.003; 0.03; 0.075; 0.15; 0.5; 0.75; 1.5 et 3% (v/v) et pour le produit selon l'invention : 0.01; 0.1; 0.25; 0.5; 1; 2.5; 5; 10% (v/v).
A titre de comparaison, on a préparé une solution à 10% d'acide kojique et une solution d'acide lactique à 30% (composition E).
Les préparations essayées ont été ensuite diluées directement dans le milieu d'incubation des mélanocytes.
A la fin de la période d'incubation, la viabilité des cellules a été évaluée par une méthode spectrophotométrique de dosage de l'activité des phosphatases intracellulaires.
Selon la méthode de Yan T. et al. (Anal. Biochem. 24 (1996) 103-108), on dose le p-nitrophénol résultant de la transformation du phosphate de p-nitrophényle par les phosphatases intra-cellulaires des cellules viables.
L'absorbance du p-nitrophénol libéré à 405 nm est directement proportionnelle au nombre des cellules viables présentes dans le puits de culture.

Data set [2] has as its system mélanocytes humains normaux. Briefly: Melano-modulating effect: intracellular melanin / protein ratio in monolayer melanocytes (step 1 single actives, step 2 complex). Format: cell-based. Particulars: 72 h. The procedure:
Ces essais ont été menés sur un modèle de mélanocytes humains normaux cultivés en mono couche.
Les mélanocytes humains normaux ont été mis en incubation pendant 72 heures en l'absence (témoin) ou en présence d'un produit de référence (acide kojique 250 µM)) ou de concentrations croissantes des produits actifs essayés.
Dans cette méthode, on dose le rapport mélanine/protéines en pourcentage du témoin. On a déterminé également les valeurs obtenues avec le solvant seul et une solution d'acide kojique à 250 µM dans ce solvant(DMSO) pris comme substance de référence.
Tableau II Véhicule (DMSO) et produit de référence
On a utilisé des mélanocytes humains normaux issus d'un sujet jeune âgé de 4 ans. On les a cultivé en monocouche jusqu'à confluence de 80%.
On a employé comme inhibiteur de tyrosinase de référence, l'acide kojique à 250 µM.
Les mélanocytes ont été mis en incubation pendant 72 heures à 37°C sous atmosphère humide et sous 5% de CO2 en l'absence (témoin) ou en présence d'acide kojique ou de concentrations croissantes de principes actifs à l'essai (0.1; 0.5 1%)
A la fin de la période d'incubation, le contenu intracellulaire en mélanine a été quantifié après lyse cellulaire par mesure spectrophotométrique à 405nm.
A la fin de la période d'incubation, les protéines contenues dans les lysats cellulaires ont été dosés par une méthode spectrocolorimétrique faisant appel au bleu de Coomassie (selon la méthode de Bradford M. Anal. Biochem. 72 (1976) 248-254).
Les résultats sont donnés sous forme de pourcentage de mélanine par rapport aux témoins (moyenne + ou- déviation standard SD) calculés à partir de valeurs obtenues en µg de mélanine intracellulaire par mg de protéines totales du tapis cellulaire.
On a déterminé la significativité statistique des différences constatées entre les conditions des « témoin » et « Produits à l'essai » selon une analyse de variance à un seul facteur (ANOVA) suivi d'un test de Holm-Sidak (* = […] < 0,05)

This note sets out measurements from patent publication EP2228050A1, “Use of gamma-aminobutyric acid as a depigmenting agent” (priority 2009, dated 2010).

Several values for one entry are separate records, joined by “and”; a condition that tells them apart may be missing. Equal values may be shown once. Read-outs that look alike come from different tables or passages of the source.

Turning to `CC(O)C(=O)O` (centres unmarked) [Actif E, acide lactique], in data set [1] (72 h, detectable = less than 80 % viable cells), the “dose à partir de laquelle un effet cytotoxique est détectable” value worked out at 0.03%.

Take `NCCCC(=O)O` [A, acide gamma-aminobutyrique]: the “dose à partir de laquelle un effet cytotoxique est détectable” value in data set [1] (human, 4320 min) is given as 0.5%.

Take `O=c1cc(CO)occ1O` [Acide Kojique, acide kojique]: the activity at 250 µM in data set [2] (Melanocyte, step 1, Acide Kojique 250 µM in DMSO, mean, * p<0,05, read-out: mélanine / protéines (% du témoin) Moyenne) was 77.4%; in data set [2] (Melanocyte, step 2, Acide kojique 250 µM, mean (controls mean 119,2), * p<0,05, read-out: Mélanines/ protéines (% du témoin) Moyenne) it was 101%; in data set [2] (Melanocyte, step 2, Acide kojique 250 µM, mean normalised to controls = 100, read-out: % témoin), 84.5%; in data set [2] (Melanocyte, step 2, Acide kojique 250 µM, single replicate (controls mean 119,2), read-out: Mélanines/ protéines (% du témoin)) it was 106%. In addition, in data set [2] (Melanocyte, step 2, acide kojique 250 µM, p < 0.05, read-out: réduction du contenu intracellulaire en mélanine), the inhibition at 250 µM was determined as 15.5%. In addition, in data set [2] (step 2, Acide kojique 250 µM, single replicate (controls mean 119,2), 4320 min, 250 µM), the “Mélanines/ protéines (% du témoin)” value was 93,2 % du témoin and 102,8 % du témoin and 94,1 % du témoin and 97,9 % du témoin.
